Test results taken from patent publication US7935685B2, “Process for preparation of inclusion compounds between a non-steroidal anti-inflammatory drug and betacyclodextrin by microwave treatment” (Chiesi Farmaceutici S.p.A., priority 2001, dated 2011).

Test: Dissolution rate of piroxicam from the solid phases, dispersed amount method (USP 25, NF 20)
Format: physicochemical
Settings: 1 L distilled water, 37° C., paddle 50 rpm
Procedure: The dissolution rate of the samples under study was determined by the dispersed amount method according to the USP 25, NF 20, 2002. The test samples were introduced into vessels containing 1 L of distilled water each.
The test was conducted by maintaining the temperature of the dissolving bath at 37° C. and regulating the paddle rotation speed to 50 rpm.
The concentration of the drug in solution was determined at 2-minute intervals by spectrophotometry.
Each sample was analysed in triplicate.

With `CN1C(C(=O)Nc2ccccn2)=C(O)c2ccccc2S1(=O)=O` [PRX, piroxicam] the “% DISS (percentage compared with the initial dose of PRX in the sample)” value (T 0 min) was 0%, the “% DISS (percentage compared with the initial dose of PRX in the sample)” value (T 2 min) was 0.052% and the “% DISS (percentage compared with the initial dose of PRX in the sample)” value (T 4 min) was 0.245%. For the same molecule, the “% DISS (percentage compared with the initial dose of PRX in the sample)” value (T 6 min) was 0.451%, the “% DISS (percentage compared with the initial dose of PRX in the sample)” value (T 8 min) was 0.619% and the “% DISS (percentage compared with the initial dose of PRX in the sample)” value (T 10 min) was 0.851%. For the same molecule, the “% DISS (percentage compared with the initial dose of PRX in the sample)” value (T 20 min) was 2.051%, the “% DISS (percentage compared with the initial dose of PRX in the sample)” value (T 30 min) was 3.340% and the “% DISS (percentage compared with the initial dose of PRX in the sample)” value (T 40 min) was 4.694%. For the same molecule, the “% DISS (percentage compared with the initial dose of PRX in the sample)” value (T 50 min) was 6.087% and the “% DISS (percentage compared with the initial dose of PRX in the sample)” value (T 60 min) was 7.635%.
